Laboratory results published in patent publication US20260109712A1, “RIFAMYCINS FOR NONTUBERCULOUS MYCOBACTERIA” (priority 2022, published 2026).
In brackets after ≈: the same amount, converted by molar mass. Read-outs that look alike come from different tables or passages of the source.

How the values were obtained:
M. abscessus ATCC 19977 = assay: MIC assay in 96-well plate format, wild-type strain; type: cell-based, Mycobacterium abscessus
Procedure: MIC determination was carried out in 96-well plate format as previously described.^[13-14] 96-well plates were initially set up with 100 μL of 7H9 per well. For each compound, a ten-point two-fold dilution series starting at twice the desired highest concentration was dispensed onto the 96-well plates using a Tecan D300e Digital Dispenser, with the DMSO concentration normalized to 2%. M. abscessus culture grown to mid-log phase (OD600=0.4-0.6) was diluted to OD600=0.1 (1×10^7 CFU/mL). […] Untreated control wells are included on each plate that contain bacteria suspension and 1% DMSO. Plates were sealed with parafilm, stored in boxes with wet paper towels and incubated at 37° C. with shaking (110 RPM). Plates were incubated for 3 days. To determine growth, OD600 was measured using a Tecan Infinite M200 plate reader on Day 0 and Day 3. Two biological replicates were performed. Clarithromycin was included in each experiment as a positive control.
For each well on the 96-well plate, bacterial growth was calculated by subtracting the Day 0 OD600 value from the Day 3 OD600 value. […] For compound-containing wells, percentage growth was calculated by dividing their growth values by the average drug-free bacterial growth for the compound series and multiplying by 100. For each compound series, we plotted percentage growth versus compound concentration.

[1] = Plasma protein binding assay (rapid equilibrium dialysis); type: in vitro ADME; conditions: 4 h, 10000 ng/mL
Procedure: DMSO stocks were spiked into plasma to a concentration of 10,000 ng/mL. 200 μL of spiked plasma was pipetted into the sample chamber of the rapid equilibrium dialysis (RED) cartridge. 350 μL of PBS was added to the adjacent cartridge. The plate containing the RED was sealed and incubated at 37° C. on the thermomixer at 300 RPM for 4 h. After incubation, 50 μL aliquots of plasma were removed and added to 50 μL of blank plasma in a deep well plate (1:1). Similarly, 50 μL aliquots of PBS were removed and added to 50 μL of blank plasma. This created an identical matrix between buffer and non-buffer samples. Samples were processed and quantified as specified in the LC-MS/MS analytical method.

[2] = Mycobacterium abscessus ATCC 19977, Table 11, read-out: MIC
[3] = Mycobacteroides abscessus, ATCC19977, Table 14, carbamate analogs, read-out: WT Mab MIC

Compound	MIC (M. abscessus ATCC 19977; [2])	ƒu [1]	MIC (M. abscessus ATCC 19977; [3])
COc1ccc(S(=O)(=O)NC(=O)O[C@H]2[C@H](C)[C@H](O)[C@H](C)[C@@H](O)[C@@H](C)/C=C/C=C(\C)C(=O)NC3=C4NC5(CCN(CC(C)C)CC5)N=C4c4c(c(O)c(C)c5c4C(=O)[C@@](C)(O/C=C/[C@H](OC)[C@H]2C)O5)C3=O)cc1 [UMN122]	0.14 µM (≈ 0.143 µg/mL)	–	–
CO[C@H]1/C=C/O[C@@]2(C)Oc3c(C)c(O)c4c(c3C2=O)C2=NC3(CCN(CC(C)C)CC3)NC2=C(NC(=O)/C(C)=C/C=C/[C@H](C)[C@H](O)[C@@H](C)[C@@H](O)[C@@H](C)[C@H](OC(=O)Nc2nccc3ccccc23)[C@@H]1C)C4=O [UMN124]	0.027 µM (≈ 0.0263 µg/mL)	–	–
CO[C@H]1/C=C/O[C@@]2(C)Oc3c(C)c(O)c4c(c3C2=O)C2=NC3(CCN(CC(C)C)CC3)NC2=C(NC(=O)/C(C)=C/C=C/[C@H](C)[C@H](O)[C@@H](C)[C@@H](O)[C@@H](C)[C@H](OC(=O)Nc2ccc3cnccc3n2)[C@@H]1C)C4=O [UMN127]	0.03 µM (≈ 0.0293 µg/mL)	–	–
CO[C@H]1/C=C/O[C@@]2(C)Oc3c(C)c(O)c4c(c3C2=O)C2=NC3(CCN(CC(C)C)CC3)NC2=C(NC(=O)/C(C)=C/C=C/[C@H](C)[C@H](O)[C@@H](C)[C@@H](O)[C@@H](C)[C@H](OC(=O)Nc2cnn3ccccc23)[C@@H]1C)C4=O [UMN129]	0.044 µM (≈ 0.0424 µg/mL)	–	–
CO[C@H]1/C=C/O[C@@]2(C)Oc3c(C)c(O)c4c(c3C2=O)C2=NC3(CCN(CC(C)C)CC3)NC2=C(NC(=O)/C(C)=C/C=C/[C@H](C)[C@H](O)[C@@H](C)[C@@H](O)[C@@H](C)[C@H](OC(=O)Nc2cnc3cc(C)nn3c2)[C@@H]1C)C4=O [UMN130]	0.049 µM (≈ 0.048 µg/mL)	–	–
CO[C@H]1/C=C/O[C@@]2(C)Oc3c(C)c(O)c4c(c3C2=O)C2=NC3(CCN(CC(C)C)CC3)NC2=C(NC(=O)/C(C)=C/C=C/[C@H](C)[C@H](O)[C@@H](C)[C@@H](O)[C@@H](C)[C@H](OC(=O)Nc2cnc3ccccc3n2)[C@@H]1C)C4=O [UMN134]	0.03 µM (≈ 0.0293 µg/mL)	–	–
CO[C@H]1/C=C/O[C@@]2(C)Oc3c(C)c(O)c4c(c3C2=O)C2=NC3(CCN(CC(C)C)CC3)NC2=C(NC(=O)/C(C)=C/C=C/[C@H](C)[C@H](O)[C@@H](C)[C@@H](O)[C@@H](C)[C@H](OC(=O)Nc2cn3ccccc3n2)[C@@H]1C)C4=O [UMN136]	0.061 µM (≈ 0.0588 µg/mL)	–	–
CO[C@H]1/C=C/O[C@@]2(C)Oc3c(C)c(O)c4c(c3C2=O)C2=NC3(CCN(CC(C)C)CC3)NC2=C(NC(=O)/C(C)=C/C=C/[C@H](C)[C@H](O)[C@@H](C)[C@@H](O)[C@@H](C)[C@H](OC(=O)Nc2cc3ccccn3n2)[C@@H]1C)C4=O [UMN142]	0.033 µM (≈ 0.0318 µg/mL)	–	–
CO[C@H]1/C=C/O[C@@]2(C)Oc3c(C)c(O)c4c(c3C2=O)C2=NC3(CCN(CC(C)C)CC3)NC2=C(NC(=O)/C(C)=C/C=C/[C@H](C)[C@H](O)[C@@H](C)[C@@H](O)[C@@H](C)[C@H](OC(=O)Nc2cn3ccsc3n2)[C@@H]1C)C4=O [UMN145]	0.065 µM (≈ 0.0631 µg/mL)	–	–
CO[C@H]1/C=C/O[C@@]2(C)Oc3c(C)c(O)c4c(c3C2=O)C2=NC3(CCN(CC(C)C)CC3)NC2=C(NC(=O)/C(C)=C/C=C/[C@H](C)[C@H](O)[C@@H](C)[C@@H](O)[C@@H](C)[C@H](OC(=O)NC2CCN(C)CC2)[C@@H]1C)C4=O [UMN146]	–	10.8%	0.09 µM (≈ 0.0851 µg/mL)
CO[C@H]1/C=C/O[C@@]2(C)Oc3c(C)c(O)c4c(c3C2=O)C2=NC3(CCN(CC(C)C)CC3)NC2=C(NC(=O)/C(C)=C/C=C/[C@H](C)[C@H](O)[C@@H](C)[C@@H](O)[C@@H](C)[C@H](OC(=O)NC2CCN(C(C)C)CC2)[C@@H]1C)C4=O [UMN147]	–	7.5%	0.098 µM (≈ 0.0954 µg/mL)
CCN1CCC(NC(=O)O[C@H]2[C@H](C)[C@H](O)[C@H](C)[C@@H](O)[C@@H](C)/C=C/C=C(\C)C(=O)NC3=C4NC5(CCN(CC(C)C)CC5)N=C4c4c(c(O)c(C)c5c4C(=O)[C@@](C)(O/C=C/[C@H](OC)[C@H]2C)O5)C3=O)CC1 [UMN149]	–	10.4%	0.078 µM (≈ 0.0748 µg/mL)
CO[C@H]1/C=C/O[C@@]2(C)Oc3c(C)c(O)c4c(c3C2=O)C2=NC3(CCN(CC(C)C)CC3)NC2=C(NC(=O)/C(C)=C/C=C/[C@H](C)[C@H](O)[C@@H](C)[C@@H](O)[C@@H](C)[C@H](OC(=O)NC2CCN(CC(C)C)CC2)[C@@H]1C)C4=O [UMN150]	–	3.6%	0.054 µM (≈ 0.0533 µg/mL)
